Experimental data: US20040063662A1, “Selenophene anti-tumor agents” (priority 1996, published 2004)

Assays:
MOLT-4 = test: NCI human tumor cell panel: MOLT-4 (Leukemia); format: cell-based
RPMI-8226 = test: NCI human tumor cell panel: RPMI-8226 (Leukemia); format: cell-based
A549/ATCC = test: NCI human tumor cell panel: A549/ATCC (Non-Small Cell Lung Cancer); format: cell-based
EKVX = test: NCI human tumor cell panel: EKVX (Non-Small Cell Lung Cancer); format: cell-based
NCI-H23 = test: NCI human tumor cell panel: NCI-H23 (Non-Small Cell Lung Cancer); format: cell-based; settings: NCI-H23, read-out: Log10 GI50 (converted)
NCI-H460 = test: NCI human tumor cell panel: NCI-H460 (Non-Small Cell Lung Cancer); format: cell-based
HCT-116 = test: NCI human tumor cell panel: HCT-116 (Colon Cancer); format: cell-based
HT29 = test: NCI human tumor cell panel: HT29 (Colon Cancer); format: cell-based
SW-620 = test: NCI human tumor cell panel: SW-620 (Colon Cancer); format: cell-based
SF-295 = test: NCI human tumor cell panel: SF-295 (CNS Cancer); format: cell-based
SF-539 = test: NCI human tumor cell panel: SF-539 (CNS Cancer); format: cell-based
SNB-75 = test: NCI human tumor cell panel: SNB-75 (CNS Cancer); format: cell-based
U251 = test: NCI human tumor cell panel: U251 (CNS Cancer); format: cell-based
LOX IMVI = test: NCI human tumor cell panel: LOX IMVI (Melanoma); format: cell-based
M14 = test: NCI human tumor cell panel: M14 (Melanoma); format: cell-based
SK-MEL-2 = test: NCI human tumor cell panel: SK-MEL-2 (Melanoma); format: cell-based
SK-MEL-28 = test: NCI human tumor cell panel: SK-MEL-28 (Melanoma); format: cell-based
SK-MEL-5 = test: NCI human tumor cell panel: SK-MEL-5 (Melanoma); format: cell-based
IGROV1 = test: NCI human tumor cell panel: IGROV1 (Ovarian Cancer); format: cell-based
OVCAR-3 = test: NCI human tumor cell panel: OVCAR-3 (Ovarian Cancer); format: cell-based
OVCAR-8 = test: NCI human tumor cell panel: OVCAR-8 (Ovarian Cancer); format: cell-based
786-0 = test: NCI human tumor cell panel: 786-0 (Renal Cancer); format: cell-based
A498 = test: NCI human tumor cell panel: A498 (Renal Cancer); format: cell-based
TK-10 = test: NCI human tumor cell panel: TK-10 (Renal Cancer); format: cell-based
UO-31 = test: NCI human tumor cell panel: UO-31 (Renal Cancer); format: cell-based
MCF7/ADR-RES = test: NCI human tumor cell panel: MCF7/ADR-RES (Breast Cancer); format: cell-based
MDA-N = test: NCI human tumor cell panel: MDA-N (Breast Cancer); format: cell-based
NCI-H522 = test: NCI human tumor cell panel: NCI-H522 (Non-Small Cell Lung Cancer)
[1] = read-out: Log10 GI50 (converted)
[2] = read-out: Log10 TGI (converted)

SMILES: OCc1ccc(-c2ccc(-c3ccc[se]3)[se]2)[se]1 [compound 675246]
- GI50 (MOLT-4; MOLT-4, read-out: Log10 GI50 (converted)): 3.24 µM
- IC (TGI) (MOLT-4; MOLT-4, read-out: Log10 TGI (converted)): 12 µM
- GI50 (RPMI-8226; RPMI-8226, read-out: Log10 GI50 (converted)): 7.41 µM
- IC (TGI) (RPMI-8226; RPMI-8226, read-out: Log10 TGI): > 100 µM
- GI50 (A549/ATCC; [1]): 10.5 µM
- IC (TGI) (A549/ATCC; [2]): 22.4 µM
- GI50 (EKVX; [1]): 5.5 µM
- IC (TGI) (EKVX; [2]): 17.4 µM
- GI50 (NCI-H23): 13.2 µM
- GI50 (NCI-H460; NCI-H460, read-out: Log10 GI50 (converted)): 0.324 µM
- IC (TGI) (NCI-H460; NCI-H460, read-out: Log10 TGI (converted)): 3.63 µM
- GI50 (HCT-116; HCT-116, read-out: Log10 GI50 (converted)): 0.0646 µM
- IC (TGI) (HCT-116; HCT-116, read-out: Log10 TGI (converted)): 10.7 µM
- GI50 (HT29; HT-29, HT29, read-out: Log10 GI50 (converted)): 0.851 µM
- IC (TGI) (HT29; HT-29, HT29, read-out: Log10 TGI (converted)): 10.7 µM
- GI50 (SW-620; SW-620, read-out: Log10 GI50 (converted)): 0.417 µM
- IC (TGI) (SW-620; SW-620, read-out: Log10 TGI (converted)): 10.2 µM
- GI50 (SF-295; SF-295, read-out: Log10 GI50 (converted)): 10.7 µM
- IC (TGI) (SF-295; SF-295, read-out: Log10 TGI (converted)): 27.5 µM
- GI50 (SF-539; SF-539, read-out: Log10 GI50 (converted)): 12.3 µM
- IC (TGI) (SF-539; SF-539, read-out: Log10 TGI (converted)): 25.1 µM
- GI50 (SNB-75; SNB-75, read-out: Log10 GI50 (converted)): 3.89 µM
- IC (TGI) (SNB-75; SNB-75, read-out: Log10 TGI (converted)): > 100 µM
- GI50 (U251; U-251, U251, read-out: Log10 GI50 (converted)): 0.0708 µM
- IC (TGI) (U251; U-251, U251, read-out: Log10 TGI (converted)): 12.3 µM
- GI50 (LOX IMVI; [1]): 3.63 µM
- IC (TGI) (LOX IMVI; [2]): 9.77 µM
- GI50 (M14; M14, read-out: Log10 GI50 (converted)): 8.71 µM
- IC (TGI) (M14; M14, read-out: Log10 TGI (converted)): 24 µM
- GI50 (SK-MEL-2; SK-MEL-2, read-out: Log10 GI50 (converted)): 9.12 µM
- IC (TGI) (SK-MEL-2; SK-MEL-2, read-out: Log10 TGI (converted)): 25.7 µM
- GI50 (SK-MEL-28; SK-MEL-28, read-out: Log10 GI50 (converted)): 7.41 µM
- IC (TGI) (SK-MEL-28; SK-MEL-28, read-out: Log10 TGI (converted)): 21.9 µM
- GI50 (SK-MEL-5; SK-MEL-5, read-out: Log10 GI50 (converted)): 2.63 µM
- IC (TGI) (SK-MEL-5; SK-MEL-5, read-out: Log10 TGI (converted)): 8.91 µM
- GI50 (IGROV1; IGROV-1, IGROV1, read-out: Log10 GI50 (converted)): 0.0537 µM
- IC (TGI) (IGROV1; IGROV-1, IGROV1, read-out: Log10 TGI (converted)): 2.24 µM
- GI50 (OVCAR-3; OVCAR-3, read-out: Log10 GI50 (converted)): 0.0603 µM
- IC (TGI) (OVCAR-3; OVCAR-3, read-out: Log10 TGI (converted)): 1.29 µM
- GI50 (OVCAR-8; OVCAR-8, read-out: Log10 GI50 (converted)): 5.01 µM
- IC (TGI) (OVCAR-8; OVCAR-8, read-out: Log10 TGI (converted)): 33.1 µM
- GI50 (786-0; 786-0, read-out: Log10 GI50 (converted)): 2.19 µM
- IC (TGI) (786-0; 786-0, read-out: Log10 TGI (converted)): 5.25 µM
- GI50 (A498; A498, read-out: Log10 GI50 (converted)): 0.0389 µM
- IC (TGI) (A498; A498, read-out: Log10 TGI (converted)): 0.166 µM
- GI50 (TK-10; TK-10, read-out: Log10 GI50 (converted)): 1.91 µM
- IC (TGI) (TK-10; TK-10, read-out: Log10 TGI (converted)): 10.7 µM
- GI50 (UO-31; UO-31, read-out: Log10 GI50 (converted)): 6.17 µM
- IC (TGI) (UO-31; UO-31, read-out: Log10 TGI (converted)): 38.9 µM
- GI50 (MCF7/ADR-RES; [1]): 5.13 µM
- IC (TGI) (MCF7/ADR-RES; [2]): 46.8 µM
- GI50 (MDA-N; [1]): 9.77 µM
- IC (TGI) (MDA-N; [2]): 56.2 µM
- GI50 (NCI-H522; NCI-H522, read-out: Log10 GI50 (converted)): 2.45 µM
- IC (TGI) (NCI-H522; NCI-H522, read-out: Log10 TGI): 6.61 µM
